The conditions of series [1]: in vivo, ip.
The test system of series [2] is NMRI mice aged 2-3, 6 and 13 months. The series can be described thus: Water maze learning and memory in young and aged NMRI mice. The following applies: 2-3 month mice; 1.5 hours; MTC 1 mg/kg i.p.
Series [3] concerns scopolamine-treated NMRI mice. Briefly: Morris water maze spatial reference memory task, reversal of scopolamine-induced cognitive deficits. The series is classed as in vivo. The following applies: for Learning / Thigmotaxis / S-T memory: mg/kg i.p.; for S-T memory: probe 1.5 h. The protocol: (§1) Female, NMRI mice aged 3-4 months were from Harlan, UK.
Mice were group housed (7-9 per cage) and maintained with light from 7 am-7 pm and experiments carried out in the light phase. […] They were separated into 6 groups to receive drug administrations as follows:
(§2) The injection volume for drugs was 0.2 ml per 30 g animal weight and they were injected intraperitoneally. The doses were as indicated above.
The water maze consisted of a water-filled pool (1.5 m diameter; 20±2° C.) in which a platform submerged 1 cm below water surface was the only means of escape. Mice were released from 4 cardinal sites (South, West, North and East) facing the wall of the pool in random fashion and thus had to acquire spatial knowledge of the exact platform location by spatial mapping procedures using distal cues.
Each animal was given 6 trials/day and was allowed to swim for a maximum time of 60 seconds and stay 30 seconds on the platform. […] An inter-trial interval of 10-20 minutes was given. The animals were trained for 4 consecutive days and received probe trials (free swim for 60 seconds without platform in the pool) approximately 1.5 and 24 hours post-training to test short and long-term memory, respectively. The behaviour of animals was recorded via an overhead camera and data transmitted to the PC for online storage and analysis (EthoVision basic version 3.0.8. Noldus Information Technology, Netherlands).
Probe trial data were analysed by one-way ANOVA and the appropriate post-hoc tests (Bonferroni's multiple comparison test or Newman Keuls) were carried out to determine the source of a significant main effect or interaction. Analyses were performed two-tailed and the null hypothesis was […] at probability levels of 5% (p<0.05). Only terms for reliable differences are mentioned in the text for simplicity.

For another series, the system named is mice. The format is in vivo. As to conditions: for highest effective and safe dose: i.p., mice.
The next series has as its system saline treated NMRI mice. The series can be described thus: Morris water maze spatial reference memory task, drug given after saline (otherwise unimpaired animals, side-effect profiling). The series is classed as in vivo. As to conditions: saline then Rivast (0.125), mg/kg i.p. The protocol: as §1
Mice were group housed (7-9 per cage) and maintained with light from 7 am-7 pm and experiments carried out in the light phase. There were 82 mice in total, of which 12 were excluded from the study for circling behaviour during the water maze test. They were separated into 6 groups to receive drug administrations as follows:
as §2
Behavioural testing was undertaken using the Morris water maze spatial navigational task (Morris, 1984). […]
Each animal was given 6 trials/day and was allowed to swim for a maximum time of 60 seconds and stay 30 seconds on the platform. […] The behaviour of animals was recorded via an overhead camera and data transmitted to the PC for online storage and analysis (EthoVision basic version 3.0.8. Noldus Information Technology, Netherlands). […]
Behavioural data of acquisition learning were analysed by conventional statistics (Graph Pad Prism version 4.01) using factorial repeated measures analysis of variance (ANOVA) with treatment as between-subject and day/trial as within-subject factor followed by planned comparisons between selected groups. […]

Series [4] can be described thus: Brain levels of MTC after administration. The following applies: post administration.
[5] abbreviates: scopolamine 0.5 mg/kg then rivastigmine 0.5 mg/kg, probe trials.
The mark [6] stands for this setting: scopolamine (0.5) then Rivast (0.1).
The mark [7] stands for this setting: scopolamine (0.5) then Rivast (0.125).
Setting [8] is: scopolamine (0.5) then Rivast (0.125), listed as Rivast.
The mark [9] stands for this setting: scopolamine (0.5) then Rivast (0.25).
[10] abbreviates: scopolamine (0.5) then Rivast (0.25), listed as Rivast.
The mark [11] stands for this setting: scopolamine (0.5) then Rivast (0.5).
[12] abbreviates: scopolamine (0.5) then Rivast (0.5), listed as Rivast.

Consider 3 molecules from patent publication US9211294B2, “Phenothiazine compounds for treating mild cognitive impairment” (WisTa Laboratories Ltd., priority 2007, dated 2015).

Entries after “also recorded” stand apart in the source; their conditions may differ. Structures can show the parent of a compound that is named as a salt.

Take `CN(C)c1ccc2nc3ccc(N(C)C)cc3[s+]c2c1` [MTC, methyl-thioninium chloride]: in series [1], the “time of peak brain levels” value fell in the range of 30 to 60 min. In addition, in series [2], the “time spent in the target quadrant” value was “no effect”. For the same molecule, the “saturation of dose-response relationship for learning and memory formation” value in series [3] (linear dose-response) is recorded as “about 4 mg/kg”. Further, the “highest effective and safe dose” value with mice turned out to be 4 mg/kg.

Regarding `CCN(C)C(=O)Oc1cccc([C@H](C)N(C)C)c1` [rivastigmine, rivastigmine tartrate], the “dose required to fully restore spatial learning” value in series [3] (administered acutely, scopolamine-treated NMRI mice) is listed as over 0.125 mg/kg. The “overall learning between day 1 and 4 (overall reduction in path length)” value in series [3] (scopolamine 0.5 mg/kg then rivastigmine 0.1 mg/kg) is given as “substantial overall improvement”. Further, in series [3] (scopolamine 0.5 mg/kg then rivastigmine 0.5 mg/kg), the “thigmotaxis during memory phase” value was “not significantly different from either scopolamine or saline”. Besides, in series [3] (scopolamine 0.5 mg/kg then rivastigmine 0.5 mg/kg i.p., by day 4), the “logarithmic transform of pathlength (advanced analysis)” value is listed as “reverse the deficit”. Besides, the “proportion of time spent in target quadrant (probe trials)” value in series [3] (scopolamine 0.5 mg/kg then rivastigmine 0.5 mg/kg, pooled day 4 and day 5) was “did not reverse”. For the same molecule, in series [3] (setting [5]), the “latency (composite parameter, temporal accuracy)” value was “no effect at all”. Further, the “localisation (composite parameter, spatial accuracy)” value in series [3] (setting [5]) is given as “not able to reverse the deficit”. Further, the Learning entry in series [3] (setting [6]) is “ineffective”; in series [3] (scopolamine (0.5) then Rivast (0.1), listed as Rivast), “↓”; in series [3] (setting [8]), “↑”; in series [3] (scopolamine (0.5) then Rivast (0.125), listed as Rivastigmine), “fully reversed”; in series [3] (setting [9]) it was “only partial”; in series [3] (setting [10]), “↑↓”. The Learning result in series [3] (setting [12]) is on record as “↑”; in series [3] (scopolamine (0.5) then Rivast (0.5), listed as Rivastigmine) it was “completely reversed; also recorded: fully reversed”; with saline treated NMRI mice, “did not alter spatial learning”. Besides, the Thigmotaxis result in series [3] (setting [6]) was “↓”; in series [3] (setting [7]) it was “↑”; in series [3] (setting [9]) it was “↓”; in series [3] (setting [11]) it was “reversed”; in series [3] (setting [12]) it was “↑”. Moreover, the S-T memory entry in series [3] (setting [6]) is on record as “↓”; in series [3] (setting [7]) it was “spatial bias was established”; in series [3] (setting [8]), “↑”; in series [3] (setting [9]), “memory deficit”; in series [3] (setting [10]), “↓”; in series [3] (setting [11]), “memory deficit”. Besides, the S-T memory entry in series [3] (setting [12]) was “↓”; with saline treated NMRI mice (probe 1.5 h), “↑↓”. Further, the “adverse effects (motor coordination problems, ataxia, brief episodes of convulsions)” value with mice (doses of 0.5 and 0.25 mg/kg, in the absence of scopolamine treatment) is “severe adverse effects”. Also, the “highest effective and safe dose” value in the series with mice turned out to be 0.125 mg/kg.

methyl-thioninium chloride [MTC]: in series [4], the “time at which brain levels are maximal” value lay within 1 to 4 h.
